Patent publication US5455222A, “1-substituted-5-thiomethylthiocyanato-1H-tetrazoles, compositions containing them and their use as antimicrobial and marine antifouling agents” (The Dow Chemical Company, priority 1994, dated 1995)
In brackets after ≈: the same amount, converted by molar mass.

Tests used:
[1] = system: Bacillus subtilis (Bs); experiment: Minimum inhibitory concentration (MIC), bacteria in nutrient agar; type: cell-based, Bacillus subtilis ATCC 8473; settings: 48 hours
Protocol: (§1) The minimum inhibitory concentration (MIC) for the compounds listed in Table I is determined for 9 bacteria, using nutrient agar, and 7 yeast and fungi, using malt yeast agar. A one percent solution of the test compound is prepared in a mixture of acetone and water.
(§2) Nutrient agar is prepared at pH 6.8, representing a neutral medium, and at pH 8.2, representing an alkaline medium. The nutrient agars are prepared by adding 23 g of nutrient agar to one liter of deionized water. In addition, the alkaline medium is prepared by adjusting a 0.04M solution of N-[tris-(hydroxymethyl)methyl]glycine buffered deionized water with concentrated sodium hydroxide to a pH of 8.5.
(§3) The test tubes containing the agar are cooled in a water bath until the temperature of the agar is 48° C. Then, an appropriate amount of the one percent solution of the test compound is added (except in the controls where no compound is added) to the respective test tubes so that the final concentrations are 500, 250, 100, 50, 25, 10, 5, 2.5, 1.0 and zero parts per million of the test compound in the agar, thus having a known concentration of test compound dispersed therein. The contents of the test tubes are then transferred to respective petri plates. After drying for 24 hours, the petri plates containing nutrient agar are inoculated with bacteria and those containing malt yeast agar are inoculated with yeast and fungi.
(§4) The inoculation with bacteria is accomplished by using the following procedure. Twenty-four hour-cultures of each of the bacteria are prepared by incubating the respective bacteria in tubes containing nutrient broth for 24 hours at 30° C. in a shaker. Dilutions of each of the 24 hour-cultures are made so that nine separate suspensions (one for each of the nine test bacteria) are made, each containing 10^8 colony forming units (CFU) per mL of suspension of a particular bacteria. Aliquots of 0.3 mL of each of the bacterial suspensions are used to fill the individual wells of Steer's Replicator. For each microbial suspension, 0.3 mL was used to fill three wells (i.e., three wells of 0.3 mL each) so that for the nine different bacteria, 27 wells are filled. The Steer's Replicator is then used to inoculate both the neutral and alkaline pH nutrient agar petri plates.
(§5) The inoculated petri plates are incubated at 30° C. for 48 hours and then read to determine if the test compound which is incorporated into the agar prevented growth of the respective bacteria.
(§6) Table II lists the bacteria, yeast and fungi used in the MIC test described above along with their respective American Type Culture Collection (ATCC) identification numbers.
(§7) In Tables III and IV, the MIC values of the compounds described in Table I as compared to the MIC of a standard commercial preservative (with 1-(3-chloroallyl)-3,5,7-triaza-1-azoniaadamantane chloride as the active agent and referred to in Tables III and IV as "STANDARD I") are set forth for the bacteria organisms and yeast/fungi organisms which are listed in Table II.

[2] = system: Enterobacter aerogenes (Ea); experiment: as above; type: cell-based, Enterobacter aerogenes ATCC 13048; settings: Klebsiella aerogenes, 48 hours
Protocol: as §1, §2, §3, §4, §5, §6, §7

[3] = system: Escherichia coli (Ec); experiment: as above; type: cell-based, Escherichia coli ATCC 11229; settings: 48 hours
Protocol: as §1, §2, §3, §4, §5, §6, §7

[4] = system: Klebsiella pneumoniae (Kp); experiment: as above; type: cell-based, Klebsiella pneumoniae ATCC 8308; settings: 48 hours
Protocol: as §1, §2, §3, §4, §5, §6, §7

[5] = system: Proteus vulgaris (Pv); experiment: as above; type: cell-based, Proteus vulgaris ATCC 881; settings: 48 hours
Protocol: as §1, §2, §3, §4, §5, §6, §7

[6] = system: Pseudomonas aeruginosa (PRD-10); experiment: as above; type: cell-based, Pseudomonas aeruginosa ATCC 15442; settings: 48 hours
Protocol: as §1, §2, §3, §4, §5, §6, §7

[7] = system: Pseudomonas aeruginosa (Pa); experiment: as above; type: cell-based, Pseudomonas aeruginosa ATCC 10145; settings: 48 hours
Protocol: as §1, §2, §3, §4, §5, §6, §7

[8] = system: Salmonella choleraesuis (Sc); experiment: as above; type: cell-based, Salmonella choleraesuis ATCC 10708; settings: Salmonella enterica, 48 hours
Protocol: as §1, §2, §3, §4, §5, §6, §7

[9] = system: Staphylococcus aureus (Sa); experiment: as above; type: cell-based, Staphylococcus aureus ATCC 6538; settings: 48 hours
Protocol: as §1, §2, §3, §4, §5, §6, §7

[10] = system: Aspergillus niger (An); experiment: Minimum inhibitory concentration (MIC), yeast/fungi in malt yeast agar; type: cell-based, Aspergillus niger ATCC 16404; settings: 30° C., 72 hours for fungi
Protocol: as §1
(§8) Malt yeast agar is prepared by adding 3 g yeast extract and 45 g malt agar per liter of deionized water. The specific agar is dispensed in 30 mL aliquots into 25×200 mm test tubes, capped and autoclaved for 15 minutes at 115° C.
as §3
(§9) The inoculation with the yeast and fungi is accomplished as follows. Cultures of yeast and fungi are incubated for seven days on malt yeast agar at 30° C. These cultures are used to prepare suspensions by the following procedure. A suspension of each organism is prepared by adding 10 mL of sterile saline and 10 microliters of octylphenoxy polyethoxy ethanol to the agar slant of yeast or fungi. The sterile saline/octylphenoxy polyethoxy ethanol solution is then agitated with a sterile swab to suspend the microorganism grown on the slant. Each resulting suspension is diluted into sterile saline (1 part suspension to 9 parts sterile saline). Aliquots of these dilutions are placed in individual wells of Steer's Replicator and petri plates inoculated as previously described. The petri plates are incubated at 30° C. and read after 48 hours for yeast and 72 hours for fungi.
as §6, §7

[11] = system: Candida albicans (Ca); experiment: as above; type: cell-based, Candida albicans ATCC 10231; settings: 30° C., 48 hours for yeast
Protocol: as §1, §8, §3, §9, §6, §7

[12] = system: Penicillium chrysogenum (Pc); experiment: as above; type: cell-based, Penicillium chrysogenum ATCC 9480; settings: 30° C., 72 hours for fungi
Protocol: as §1, §8, §3, §9, §6, §7

[13] = system: Saccharomyces cerevisiae (Sc); experiment: as above; type: cell-based, Saccharomyces cerevisiae ATCC 4105; settings: 30° C., 48 hours for yeast
Protocol: as §1, §8, §3, §9, §6, §7

[14] = system: Trichoderma viride (Tv); experiment: as above; type: cell-based, Trichoderma viride ATCC 8678; settings: 30° C., 72 hours for fungi
Protocol: as §1, §8, §3, §9, §6, §7

[15] = system: Aureobasidium pullulan (Ap); experiment: as above; type: cell-based, Aureobasidium pullulan ATCC 16622; settings: 30° C., read after 48 hours for yeast and 72 hours for fungi
Protocol: as §1, §8, §3, §9, §6, §7

[16] = system: Fusarium oxysporum (Fo); experiment: as above; type: cell-based, Fusarium oxysporum ATCC 48112; settings: 30° C., 72 hours for fungi
Protocol: as §1, §8, §3, §9, §6, §7

[17] = system: marine organisms; experiment: Marine antifouling activity, coated test panels exposed to marine environment; settings: 6 weeks, scale 10 (completely free of growth) to 0 (completely covered)
Protocol: Test panels are prepared from clear, rigid polyvinyl chloride film that is 0.381×10^-3 m thick and has one textured surface. The test panels are 0.1524 m by 0.1524 m squares that have 0.00635 m holes punched at corners on 0.127 m centers. A 0.102 square template, with a 0.067 m diameter hole at the center, is attached to the center of the textured surface of the test panels.
A candidate marine antifoulant compound (1.0 g) is stirred into a resinous latex binder (9.0 g). A portion of the compound/binder mixture (1.5 g) is added to the center of the test panel and uniformly spread over the circular area inside the template.
Water is added dropwise as needed to properly spread the compound/binder mixture. The template prevents the compound/binder mixture from spreading beyond the uncovered area. […] The template is then removed. The test panel is then allowed to dry for 8 to 12 hours at room temperature.
Two test panels are prepared for each candidate marine antifoulant compound. Two control test panels are also prepared by only treating with the resinous latex binder. One test panel of each candidate marine […] compound is attached over a white background to the topside of an exposure support apparatus. The second test panel is attached over a black background to the underside of the exposure support apparatus. The exposure support apparatus is placed horizontally 0.0254 m under a marine surface with the white background topside facing up.
After being removed from the exposure support apparatus, each test panel is inspected and rated for marine organism growth on both the treated and untreated areas of the test panel. The marine organisms present on the treated and untreated areas are noted. The presence of algae spores and bacterial slime are noted but not included in rating each test panel. The test panels are rated on a scale from 10 (representing completely free of marine organism growth) to 0 (representing completely covered with marine organism growth).
In addition, test panels were prepared using tributyl tin oxide, a known marine antifouling compound.

SMILES: N#CSCSc1nnnn1-c1ccccc1 [Example I, 1-Phenyl-5-thiomethylthiocyanato-1H-tetrazole]
- MIC ([1]; nutrient agar pH 6.8, 30° C.): < 10 µg/mL
- MIC ([1]; nutrient agar pH 8.2, 30° C.): 50 µg/mL (≈ 201 µM)
- MIC ([2]; nutrient agar pH 6.8, 30° C.): 250 µg/mL (≈ 1000 µM)
- MIC ([2]; nutrient agar pH 8.2, 30° C.): 500 µg/mL (≈ 2010 µM)
- MIC ([3]; nutrient agar pH 6.8, 30° C.): 50 µg/mL (≈ 201 µM)
- MIC ([3]; nutrient agar pH 8.2, 30° C.): 250 µg/mL (≈ 1000 µM)
- MIC ([4]; nutrient agar pH 6.8, 30° C.): 100 µg/mL (≈ 401 µM)
- MIC ([4]; nutrient agar pH 8.2, 30° C.): 100 µg/mL (≈ 401 µM)
- MIC ([5]; nutrient agar pH 6.8, 30° C.): 25 µg/mL (≈ 100 µM)
- MIC ([5]; nutrient agar pH 8.2, 30° C.): 100 µg/mL (≈ 401 µM)
- MIC ([6]; nutrient agar pH 6.8, 30° C.): 250 µg/mL (≈ 1000 µM)
- MIC ([6]; nutrient agar pH 8.2, 30° C.): 250 µg/mL (≈ 1000 µM)
- MIC ([7]; nutrient agar pH 6.8, 30° C.): 100 µg/mL (≈ 401 µM)
- MIC ([7]; nutrient agar pH 8.2, 30° C.): 100 µg/mL (≈ 401 µM)
- MIC ([8]; nutrient agar pH 6.8, 30° C.): 100 µg/mL (≈ 401 µM)
- MIC ([8]; nutrient agar pH 8.2, 30° C.): 250 µg/mL (≈ 1000 µM)
- MIC ([9]; nutrient agar pH 6.8, 30° C.): 25 µg/mL (≈ 100 µM)
- MIC ([9]; nutrient agar pH 8.2, 30° C.): 50 µg/mL (≈ 201 µM)
- MIC [10]: 5 µg/mL (≈ 20.1 µM)
- MIC [11]: 25 µg/mL (≈ 100 µM)
- MIC [12]: 2.5 µg/mL (≈ 10 µM)
- MIC [13]: 5 µg/mL (≈ 20.1 µM)
- MIC [14]: 25 µg/mL (≈ 100 µM)
- MIC [15]: 2.5 µg/mL (≈ 10 µM)
- MIC [16]: 10 µg/mL (≈ 40.1 µM)
- Marine Antifouling Rating, 6 Week Test, Bottom Panel ([17]; bottom panel (black background)): 9
- Marine Antifouling Rating, 6 Week Test, Top Panel ([17]; top panel (white background)): 9
